{"source": "patent US9068987B2", "about": "“Inhibitors of extracellular HSP90” (TRUSTEES OF TUFTS COLLEGE, priority 2003, dated 2015)", "key": {"MMP2 (72 kDa gelatinase)": {"tested_on": "MMP2 (72 kDa gelatinase)", "test": "Zymography of secreted MMP2 after geldanamycin treatment", "assay_type": "cell-based, human", "conditions": "HT-1080 cells, 20 μM in serum-free media", "procedure": "HT-1080 cells were treated with 20 μM geldanamycin (GA) in serum-free media and assayed by zymography. MMP2 (72 kDa gelatinase) activity was decreased by ˜35% after GA treatment. Total protein content was visualized by silver staining to ensure equal loading.\nWe then applied a known Hsp90 inhibitor, geldanamycin, to HT-1080 cells to test whether inhibition of Hsp90 reduced MMP2 activity. HT-1080 cells were treated with 20 μM geldanamycin (GA) in serum-free media and secreted MMP2 was assayed by zymography. MMP2 (72 kDa gelatinase) activity was decreased by ˜35%; p<0.01 after GA treatment. Total protein content in conditioned media was visualized by silver staining to ensure equal loading. (See, FIG. 18)."}, "HT-1080 cells [1]": {"tested_on": "HT-1080 cells", "test": "In vitro invasion assay with geldanamycin or GA-beads (Example 8)", "assay_type": "cell-based, human", "conditions": "10 μM for 1 hour; eliminated when activated MMP2 (100 ng) was added; data not shown"}, "HT-1080 cells [2]": {"tested_on": "HT-1080 cells", "test": "Invasion assay after 1 hour pre-treatment with novobiocin or nalidixic acid", "assay_type": "cell-based, human", "conditions": "cells pre-treated for 1 hour; normalized to no drug control; result in words", "procedure": "HT-1080 cells were pre-treated for 1 hour with novobiocin or nalidixic acid and an invasion assay was performed. […] Viability of cells in this assay was not affected (data not shown). Each data point is normalized to the no drug control and represents the mean.+−.s.e.m. of 2 experiments in triplicate.\n(§1) The ChemoTx® system (Neuro Probe Inc. #106-8, Gaithersburg) was used as a disposable chemotaxis/cell migration chamber in a 96 well format with an 8 μm filter Track etched Polycarbonate pore size, 5.7 mm diameter/site.\n(§2) 13.3 μl of 0.3 mg/ml Matrigel (see Example 8) diluted in cold Dulbeccos PBS (Gibco #14040-091) was applied on the membrane filter of the 96-well plate on row B-H and on row A0.3 μg/site of mouse collagen, type IV (Becton-Dickenson #354233) was diluted in 0.05 M HCL (Sigma #945-50) and was incubated over night at 20° C. in a desiccator for gelation, HT-1080 cells were grown to 70-80% confluence in DMEM supplemented with MEM non-essential amino acids (IX, Gibco #11140050) and Penicillin/Streptomycin (1×, Gibco #15140122) with 10% FBS (Hyclone #SH30070.03). […] After scraping the non-migrating cells from the top of the membrane (except the Standard curve on row A) fluorescence of cells, which had migrated through the membrane (not migrated in case of the Standard curve), was measured on the Tecan Spectrafluor Plus fluorescence plate reader (excitation: 544, emission: 590 nm). […]"}, "[3]": {"tested_on": "matrix metalloprotease (MMP)", "test": "Gelatin zymography of conditioned media (MMP secretion/activity)", "assay_type": "cell-based, human", "conditions": "40,000 HT-1080 cells treated 6 hours", "procedure": "40,000 HT-1080 cells were treated for 6 hours with novobiocin or nalidixic acid (as a control) at the given concentrations. […] Two bands (A and B) correspond to unidentified MMPs. (Image inverted for clarity.)\n40,000 HT-1080 cells were treated for 6 hours with novobiocin or nalidixic acid at the given concentrations. The conditioned media from treated cells was separated using a SDS-PAGE gel containing 10 mg/mL gelantin. SDS was removed from the gel using 2.5% Triton-X-100 for 30 minutes at room temperature. Proteins were allowed to digest the gelatine in digestion buffer (0.1M […], pH 8.0, 5 mM CaCl2, 0.04% NaN3) for 48 hours at 37° C. Gels were coomassie-stained and dried for densitometry. Parallel gels were silver stained to show equal loading of protein (data not shown)."}, "HT-1080 cells [4]": {"tested_on": "HT-1080 cells", "test": "Viability of cells in the novobiocin invasion assay", "assay_type": "cell-based, human", "conditions": "data not shown", "procedure": "8×10^6 HT-1080 cells/mL were pretreated for 1 hour with novobiocin or nalidixic acid at the concentrations shown and an invasion assay was performed as described in Example 9.1. […] Viability of novobiocin-treated cells in this assay was not affected (data not shown). Each data point is normalized to the no drug control and represents the mean.+−.s.e.m. of 2 experiments in triplicate."}, "HT-1080 cells [5]": {"tested_on": "HT-1080 cells", "test": "Invasion assay with FITC-labelled antibodies and CALI (Example 9.1)", "assay_type": "cell-based, human", "conditions": "FITC-labelled antibody, 300 W blue-filtered light for one hour; result in words", "procedure": "Each bar is normalized to dark control and represents the mean.+−.s.e.m of at least 2 experiments in triplicate.\nas §1, §2"}, "HT-1080 cells [6]": {"tested_on": "HT-1080 cells", "test": "FACS analysis for tumor cell specific binding", "parameters": "species or system human", "conditions": "10 μg/ml scFv; HT-1080 versus HS-27 control cells", "procedure": "The binding activity of scFv1 to HT-1080 cells (bold line) and to HS-27 cells (thin line) as control is illustrated.\nTo test the ability of purified anti HT-1080 scFv to bind specifically to target cells, we performed a fluorescence-activated cell sorter (FACS) analysis using HT-1080 cells (ATCC CCL-121) and Hs-27 cells (10^6 cells/ml) as control cell line (see Figures). Cells were incubated with 10 μg/ml of pure scFv in CellWash (BD (Becton, Dickinson and Company) #349524) for 20 min at 4° C., washed, and bound scFv's were detected with a secondary FITC labeled anti E-tag mab (Amersham #27-9412-01). Samples were washed and analyzed on a Becton Dickinson FACSscan. […] The thin line represents the control cell line (HS-27) and the bold line the HT-1080 cells. scFv1 specifically stains the tumor cell lines with up to 10 fold higher signal compared to the control cell line."}, "HT-1080 cells [7]": {"tested_on": "HT-1080 cells", "test": "Cell-matrix adhesion assay (Collagen S type I)", "assay_type": "cell-based, human", "conditions": "FITC labeled scFv, assay with CALI; data not shown", "procedure": "96-well plates (TPP #9296) (cell culture treated) were coated in Row B-H with collagen S type I 1 μg/well (Roche #10982929) in Dulbeccos PBS (Gibco #14040-091) and in Row A well 10-12 were coated with 2% BSA (Sigma #A-7030)/Dulbeccos PBS at 4° C. over night. The plate was washed with Dulbeccos PBS, blocked Row B-H and Row A well 10-12 with 2% BSA/Dulbeccos PBS for 1 h at 37° C. and washed again with Dulbeccos PBS. […] Fluorescence of cells, which had adhered to the Collagen S type 1 (not adhered in case of the Standard curve), was measured on the Fluostar Galaxy (bMG) microplate reader using excitation/emission wavelengths of 370/460 nm. scFv1 inhibited the adhesion of HT-1080 cells to Collagen S type 1 by 50%. […]"}}}
{"molecule": "COC1=C2C[C@@H](C)C[C@H](OC)[C@H](O)[C@@H](C)/C=C(\\C)[C@H](OC(N)=O)[C@@H](OC)/C=C\\C=C(/C)C(=O)NC(=CC1=O)C2=O", "note": "[geldanamycin]", "values": [{"measurement": "decrease of MMP2 (72 kDa gelatinase) activity", "setting": "MMP2 (72 kDa gelatinase)", "value": "~35", "unit": "%"}, {"measurement": "decrease of invasion of HT-1080 cells", "setting": "HT-1080 cells [1]", "value": "~35", "unit": "%"}]}
{"molecule": "CCn1cc(C(=O)O)c(=O)c2ccc(C)nc21", "note": "[nalidixic acid]", "values": [{"measurement": "effect on invasion of HT-1080 cells", "setting": "HT-1080 cells [2]", "value": "no effect on invasion"}, {"measurement": "reduction of MMP enzyme activity", "setting": "[3]; zymography", "value": "no reduction of enzyme activity"}]}
{"molecule": "CO[C@@H]1[C@@H](OC(N)=O)[C@@H](O)[C@H](Oc2ccc3c(O)c(NC(=O)c4ccc(O)c(CC=C(C)C)c4)c(=O)oc3c2C)OC1(C)C", "note": "[novobiocin]", "values": [{"measurement": "viability of treated cells", "setting": "HT-1080 cells [4]", "value": "not affected"}, {"measurement": "effect on invasion of HT-1080 cells", "setting": "HT-1080 cells [2]", "value": "dose-dependent inhibition of invasion"}, {"measurement": "decrease of MMP activity", "setting": "[3]; highest concentration tested, zymography densitometry", "value": "> 75", "unit": "%"}]}
{"molecule": "JB1: FITC-labeled anti-beta 1 integrin monoclonal antibody (JB1, Chemicon #MAB1963), positive control", "values": [{"measurement": "reduction of invasion after exposure to light", "setting": "HT-1080 cells [5]", "value": "significant (p<0.01, unpaired t-test) reduction of invasion"}]}
{"molecule": "scFv1: single chain Fv antibody fragment from phage library of mice immunized with HT-1080 cells; SEQ ID NO: 1 (protein, listed as Mus sp.) scFv: QVQLKESGAELVKPGASVKLSCTASGFNIKDYYMHWVKQRTEQGLEWIGRIDPEDGETKYAPKFQGKATITADTSSNTAYLQLSSLTSEDTAVYYCARSYDYAMDYWGQGTTVTVSTGGGGSGGGGSGGGGSALQIVLTQSPALMSASPGEKVTMTCSASSSVSYMHWYQQKSGTSPKRWIYDTSKLASGVPARFSGSGSGTSYSLTISSMEAEDAATYYCQQWSSNPLTFGAGTKLELKAAAGAPVPYPDPLEPRGAASAWSHPQFEK", "values": [{"measurement": "FACS signal on tumor cell line compared to control cell line", "setting": "HT-1080 cells [6]", "value": "up to 10 fold"}, {"measurement": "inhibition of adhesion of HT-1080 cells to Collagen S type 1", "setting": "HT-1080 cells [7]", "value": 50, "unit": "%"}]}
